In patent US10000534B2, “Peptide having osteoblast proliferation activity and periodontal ligament fibroblast proliferation activity, and use of same” (CAREGEN CO., LTD., priority 2014, dated 2018):
Ends that are not written are not given here.

Legend:
C2C12 cells = test: MTT assay of cell proliferation in C2C12 cells; assay type: cell-based; conditions: peptide 10 μg/ml, 72 hours, serum-free, FIGS. 1a and 1b
Protocol: In order to analyze the BMP2-like action of the sequence peptides synthesized in synthesis example 1, MTT assay was conducted using C2C12 cells, which are a myoblast cell line, to investigate the proliferation promoting effect.
The C2C12 cells were cultured in Dulbecco's modified Eagle's medium (DMEM, Gibco) supplemented with 10% fetal bovine serum (FBS, Sigma) using a 500 ml-flask for tissue culture. The cultured cell lines were carefully detached from the bottom of the culture container using a 1% trypsin solution, followed by centrifugation, thereby obtaining only cell precipitates. The cell precipitates were re-suspended in DMEM culture medium supplemented without FBS, and then added to a 96-well plate for tissue culture at 1×10^3 cells per each well, followed by culture under conditions of 37° C. and 5% CO2 for 24 hours. After 24 hours, the medium was changed with the same culture liquid completely excluding serum, and then the blank sample and each of the synthetic peptide were dissolved sterile in distilled water, and the mixture was cultured at a concentration of 10 μg/ml for 72 hours under the same conditions. The MTT sample was added to the culture-completed well, and after 4 hour, the formed formazan was dissolved in DMSO, and then the absorbance was measured at 560 nm to determine cell proliferation.

MC3T3-E1 cells [1] = test: Alkaline phosphatase (ALP) staining of MC3T3-E1 cells (osteoblast differentiation); assay type: cell-based; conditions: MC3T3-E1, peptide 10 ug/ml and 50 ug/ml, 13 days; FIGS. 2a and 2b
Protocol: In order to analyze the BMP2-like action of the sequence peptides synthesized in synthesis example 1, the osteoblast differentiation promoting effect was investigated through alkaline phosphatase (ALP) staining of MC3T3-E1 cells, which are a pre-osteoblast cell line. The MC3T3-E1 cells were placed in a 24-well plate to 3×10^4 cells, and then cultured for 24 hours under conditions of 37° C. and 5% CO2. After 24 hours, the alpha-MEM medium containing 10% FBS and 50 ug/ml ascorbic acid+100 mM b-glycerophosphate was treated with the synthetic peptides at concentrations of 10 ug/ml and 50 ug/ml, and then the culture was conducted for 13 days while the medium was exchanged every three days. The culture-completed plate well was washed two times with PBS, and then the cells were immobilized with an immobilization buffer, in which acetone, 37% formaldehyde, and citric acid solution were mixed, for 30 seconds. The following staining was carried out using the leukocyte alkaline phosphatase staining kit (SIGMA).
The cells were treated for 2 minutes with an FBB-alkaline solution and a sodium nitrite solution mixed at 1:1, and then treated with a buffer composed of distilled water and naphthol AS-BI alkaline solution, followed by color development in an incubator at 37° C. for 1 hour.

MC3T3-E1 cells [2] = test: RT-PCR of osteogenic differentiation-related genes (BSP, COL1A1) in MC3T3-E1 cells; assay type: cell-based; conditions: MC3T3-E1, peptide 10 ug/ml and 50 ug/ml, 2 days; FIGS. 3a and 3b
Protocol: In order to investigate the mRNA expression levels of osteogenic differentiation-related genes, bone sialoprotein (BSP) and collagen type I alpha 1 (COL1A1) by the sequence peptides synthesized in synthesis example 1, MC3T3-E1 cells were placed in a 6-well plate to 2×10^5 cells, and then cultured for 24 hours under conditions of 37° C. and 5% CO2. After 24 hours, the medium containing FBS 10% was treated with the respective peptides at 10 ug/ml and 50 ug/ml, and BMP2 used at a positive control at 100 ng/ml. After 2 days, the washing was conducted with PBS, and then RNA was isolated using Easy blue (Intron). cDNA was synthesized using 1 ug of RNA and RT premixture (Intron), and PCR was conducted using PCR premixture (Bioneer), and then the resulting product was loaded on agarose gel to investigate the mRNA expression degree of each gene.

MC3T3-E1 cells [3] = test: Western blotting of pSmad1/5/8 in MC3T3-E1 cells; assay type: cell-based; conditions: MC3T3-E1, peptide 10 ug/ml, 15 and 30 minutes, FIGS. 4a and 4b
Protocol: In order to investigate whether pSmad1/5/8, which is a signal involved in the promotion of osteogenic differentiation, was activated by the present peptides, MC3T3-E1 cells were placed in a 6-well plate at 2×10^5 cells, and then cultured for 24 hours under the conditions of 37° C. and 5% CO2. After 24 hours, the medium was exchanged with a medium without serum, followed by culture for 24 hours. Then, the resulting product was treated with the respective peptides at 10 ug/ml, and BMP2 used at a positive control at 50 ng/ml. After 15 minutes and 30 minutes, the washing was conducted with PBS, and then a lysis buffer was added to obtain proteins through lysis, followed by western blotting.

[4] = tested on: human periodontal ligament fibroblasts; test: SRB assay of human periodontal ligament fibroblast growth; assay type: cell-based; conditions: peptide 0.05-10 ug/ml, 72 hours, serum-free; FIGS. 6a and 6b
Protocol: In order to investigate the effects of the peptides of SEQ ID NO: 1 and SEQ ID NO: 2 on the periodontium, the human periodontal ligament fibroblast promoting effects were analyzed. The periodontal ligament fibroblasts were placed in a 48-well plate to 1×10^3 cells, and then cultured for 24 hours under conditions of 37° C. and 5% CO2. After 24 hours, the exchange with the medium not containing serum was conducted, followed by culture for 6 hours. Thereafter, the resulting product was treated with the peptides at concentrations of 0.05-10 ug/ml and BMP-2 and IGF-1 used as positive controls at a concentration of 0.2 ug/ml, followed by culture for 72 hours. After the completion of the culture, the culture supernatant was removed and the cells were immobilized using ethanol. After the cell immobilization was ended, the cells were washed three times with phosphate buffer saline (PBS). After the wash solution was removed, the cells were treated with colorimetric SRB solution, and sufficiently washed with 1% acetic acid. Then, the cells were observed using a microscope to observe the conditions of living cells. The absorbance for the solution decolorized with 20 mM tris was read at UV light of 560 nm, thereby measuring the survival conditions of cells.

[5] = tested on: human periodontal ligament fibroblasts; test: Western blotting of p-PI3K and p-Akt in periodontal ligament fibroblasts; assay type: cell-based; conditions: peptide 10 ug/ml, 5-15 minutes, FIGS. 7a and 7b
Protocol: In order to investigate the human periodontal ligament fibroblast growth promoting effects by the peptides of SEQ ID NO: 1 and SEQ ID NO: 2, the phosphorylation degrees of related signaling molecules were analyzed using western blotting. The periodontal ligament fibroblasts were placed in a 6-well plate to 5×10^5 cells, and then cultured for 24 hours under conditions of 37° C. and 5% CO2. Thereafter, the resulting product was treated with the peptides at a concentration of 10 ug/ml and bFGF used as a positive control at a concentration of 0.2 ug/ml. Then, the cells were collected by culture times of 5-15 minutes, and the total proteins were isolated, and then western blotting was conducted with respect to p-PI3K and p-Akt.

[6] = tested on: periodontal ligament fibroblasts; test: RT-PCR of COL1A1 and DSPP mRNA in periodontal ligament fibroblasts; assay type: cell-based, human; conditions: peptide 1 and 10 ug/ml, 72 hours, FIGS. 8a and 8b
Protocol: In order to investigate the periodontal ligament fibroblast activity promoting effects by the peptides of SEQ ID NO: 1 and SEQ ID NO: 2, the mRNA expression of related genes was analyzed using RT-PCR. The periodontal ligament fibroblasts were placed in a 24-well plate to 1.5×10^4 cells, and then cultured for 24 hours under conditions of 37° C. and 5% CO2. After 24 hours, the exchange with the medium not containing serum was conducted, followed by culture for 24 hours. Thereafter, the resulting product was treated with the peptides at concentrations of 1 and 10 ug/ml and BMP-2 and IGF-1 used as positive controls at a concentration of 0.2 ug/ml, followed by culture for 72 hours. After the completion of the culture, the washing was conducted with PBS, and then RNA was isolated using Easy blue (Intron). cDNA was synthesized using 1 ug of RNA and RT premixture (Intron), and PCR was conducted using PCR premixture (Bioneer), and then the resulting product was loaded on agarose gel to investigate the mRNA level of each marker.

Balb/c mouse = test: Collagen sponge transplant in Balb/c mouse, H&E staining of osteocytes permeation and differentiation; assay type: in vivo; conditions: collagen sponge with 100 ug peptide transplanted into the back, 2 weeks, FIG. 5
Protocol: A collagen sponge with a size of 0.5 mm×0.5 mm was wetted with 100 ug of the peptide of SEQ ID NO: 1, transplanted into the back of the Balb/c mouse, and then left for 2 weeks. Thereafter, the collagen sponge was extracted, and then made into a paraffin block, and then the degree of osteocytes permeation and differentiation in the collagen sponge were measured through H&E staining (FIG. 5).

Sequence | growth of osteoblasts (cell proliferation, MTT, absorbance at 560 nm) (C2C12 cells) | ALP expression (ALP staining) (MC3T3-E1 cells [1]) | mRNA expression levels of osteogenic differentiation genes (BSP, COL1A1) (MC3T3-E1 cells [2]) | phosphorylation of Smad1/5/8 (MC3T3-E1 cells [3]) | periodontal ligament fibroblast cell growth (SRB, absorbance 560 nm) [4] | phosphorylation level of Akt [5] | phosphorylation level of PI3K [5] | mRNA expression level of alpha-1 type I collagen (COL1A1) [6] | mRNA expression level of dentin sialophosphoprotein (DSPP) [6] | bone formation promoting effect (osteocytes permeation, proliferation and differentiation in collagen sponge, H&E) (Balb/c mouse)
FDMGAYKSSK [SEQ ID NO: 2] | significantly promoted the growth of osteoblasts | increase in the ALP expression | increases in the mRNA expression levels | promotion of the phosphorylation of Smad1/5/8 | cell growth increase in a dose-dependent manner | increases in the phosphorylation levels | increases in the phosphorylation levels | increases in the mRNA expression levels | increases in the mRNA expression levels | 
RSLNLRDSQKS [SEQ ID NO: 1] | significantly promoted the growth of osteoblasts | increase in the ALP expression | increases in the mRNA expression levels | promotion of the phosphorylation of Smad1/5/8 | cell growth increase in a dose-dependent manner | increases in the phosphorylation levels | increases in the phosphorylation levels | increases in the mRNA expression levels | increases in the mRNA expression levels | bone formation promoting effect
